Results: patent publication US9603843B2, “Kits and methods for treating post traumatic stress disorder (PTSD) and hot flashes” (CAD MEDICAL SOLUTIONS, LLC, priority 2013, dated 2017)
Where two headings read alike, the source gives them in different places.

Assays:
[1] = cited from earlier work
PTSD = conditions: Navy study, ultrasound guidance, not xray guidance; cited from earlier work
dogs = conditions: cited from earlier work
patient having PTSD = conditions: patient treated with CB without and with clonidine
Excerpt: The procedure involved a local anesthetic mixed with clonidine delivered by a shot in the patient's neck in a procedure that is similar to an epidural given to women in labor.

peripheral nerve blocks = conditions: cited from earlier work
[2] = group 1: left SGB, 0.5% mepivacaine 1 ml

SMILES: CCCCN1CCCCC1C(=O)Nc1c(C)cccc1C (centres unmarked) [bupivacaine]
- solubility ([1]; 95 percent ethanol): freely soluble
- solubility ([1]; chloroform or acetone): slightly soluble
- solubility ([1]; water): soluble

SMILES: CCCN1CCCC[C@H]1C(=O)Nc1c(C)cccc1C [Ropivacaine, ropivacaine]
- RCSGI versus placebo (PTSD): no difference

SMILES: Cc1cccc(C)c1NC(=O)C1CCCCN1C (centres unmarked) [mepivacaine]
- left brachial artery blood flow (BABF) after left SGB (dogs; group 1: 0.5% mepivacaine 1 ml): increased significantly
- right BABF after left SGB (dogs; group 1: 0.5% mepivacaine 1 ml): decreased significantly
- heart rate (HR) (dogs; [2]): no significant change
- mean arterial pressure (MAP) (dogs; [2]): no significant change

SMILES: Clc1cccc(Cl)c1N=C1NCCN1 [clonidine]
- patient-reported result with clonidine over the local anesthetic alone (patient having PTSD): significantly more effective result
- duration of analgesia and anesthesia (peripheral nerve blocks; adjunct to intermediate-acting local anesthetics for some peripheral nerve blocks): improves
- side-effects (peripheral nerve blocks; doses up to 150 µg): limited
